# In PMC5622107, “Small molecule inhibition of cGAS reduces interferon expression in primary macrophages from autoimmune mice” (Nature Communications, 2017):
# Where two headings read alike, the source gives them in different places.
# How the values were obtained:
# [1] = test system: RAW macrophage cells stimulated with 5′ppp-HP20 RNA, Pam3CSK4, poly(I:C), LPS or recombinant Ifnb; test: Selectivity: RAW macrophages stimulated with non-DNA immunogenic ligands (luciferase reporter or Il-6 qRT-PCR); type: cell-based, mouse; conditions: compound at EC75; 5′ppp-HP20 RNA, Pam3CSK4, poly(I:C), LPS, Ifnb
# Description: (§1) The sequence and annealing conditions of the dsDNA used is described above. Typically, 0.4 µg or 0.6 µg of dsDNA was used to stimulate RAW-Lucia ISG-KO-TREX1/ISG-KO-cGAS or RAW-Lucia ISG cells, respectively, which equated to 90% of maximal luciferase activity observed. dsDNA stimulation of RAW macrophages and subsequent luciferase measurements were performed with or without the addition of small molecules at indicated concentrations in each figure, or with DMSO as vehicle control. For the dose curve experiments, serial dilutions of inhibitors were applied to 6.7 × 10^5 cells, plated in 24-well dishes, and co-stimulated with 0.4 µg of dsDNA. In subsequent experiments using inhibitors in RAW cells, the small molecules were used at concentrations representing the derived EC75 values, while co-stimulated with one of the following: 0.4 µg dsDNA, 50 nM 5′ppp-HP20 hairpin RNA (a kind gift from Dr Anna Pyle, Yale University; sequence located in Supplementary Table 5), 10 µM cGAMP, or 100 U ml^−1 murine recombinant Ifnb (R&D Systems). dsDNA was transfected using Lipofectamine LTX. 5′ppp-HP20 RNA was transfected using Lipofectamine 2000. Cells were harvested 24 h post-transfection, washed with PBS, and lysed in 1× Luciferase Cell Lysis Buffer (Pierce).
# (§2) The minimum numbers of biological and technical replicates for the luciferase assays were two and three, respectively. Analysis of luminescence values were evaluated for outliers (one standard deviation above and below the mean) for each biological replicate, and the resulting means were used to generate graphs in GraphPad Prism (v. 7.0c); where applicable, an unpaired t-test with Welch’s correction was used to compare the results of each individual compound to dsDNA or other stimulant. The experimental variances observed within control samples (untreated or vehicle) and treated samples were similar.
# The small molecules were used at concentrations representing the EC75 values and were co-stimulated with either 200 ng Pam3CSK4 (Invivogen), 25 µg poly(I:C) or 100 ng lipopolysaccharide (Sigma-Aldrich) at the cell counts and conditions previously described for the cellular luciferase assays. Cells were harvested 24 h post-transfection, washed with PBS, and RNA was extracted using Trizol (Ambion) and chloroform (Sigma-Aldrich). In all, 1–2 µg of total RNA was reverse-transcribed using random hex primers and SuperScript III (Life Technologies) into cDNA. […] The expression of mRNAs […] murine Actb1 and Il-6 were measured (see Supplementary Table 5 for primer sequences used). Target C T values were normalized to Actb1 C T values and used to calculate ΔC T. mRNA expression of target genes were then calculated using the ΔΔC T method (2^ΔΔCT). Expression values were analyzed as described in the method for cellular luciferase assays.
# [2] = test system: RAW 264.7; test: Cytotoxicity, CellTiter-Glo ATP quantitation at 72 h; type: cell-based
# Description: Small-molecule compounds were serially diluted to concentrations spanning the range tested in the response curves were added to 6.7 × 10^5 RAW-Blue macrophages plated 16 h prior in 96-well dishes, then harvested 72 h after compound addition. ATP was measured using CellTiter Glo Viability Assay (Promega) using 50 µM Tamoxifen (Sigma) as a positive control for cytotoxicity. Viability values were generated using vehicle (DMSO) or the first dose (RU.521) as 100% and Tamoxifen as 0%. Outliers were removed as described previously.
# [3] = biological target: T1, mouse cGAS (Mus musculus, UniProt Q8C6L5); test: RapidFire mass spectrometry (RF-MS) cGAS enzymatic assay, cGAMP product formation; type: biochemical; conditions: for inhibition at 12.5 µM: read-out: % inhibition at 12.5 µM
# T1 construct: recombinant full-length mouse cGAS in reaction buffer; His6-SUMO (N, cleaved yes); made in house; host or cells: E. coli BL21(DE3) RIL
# T1 sequence (Q8C6L5 whole entry): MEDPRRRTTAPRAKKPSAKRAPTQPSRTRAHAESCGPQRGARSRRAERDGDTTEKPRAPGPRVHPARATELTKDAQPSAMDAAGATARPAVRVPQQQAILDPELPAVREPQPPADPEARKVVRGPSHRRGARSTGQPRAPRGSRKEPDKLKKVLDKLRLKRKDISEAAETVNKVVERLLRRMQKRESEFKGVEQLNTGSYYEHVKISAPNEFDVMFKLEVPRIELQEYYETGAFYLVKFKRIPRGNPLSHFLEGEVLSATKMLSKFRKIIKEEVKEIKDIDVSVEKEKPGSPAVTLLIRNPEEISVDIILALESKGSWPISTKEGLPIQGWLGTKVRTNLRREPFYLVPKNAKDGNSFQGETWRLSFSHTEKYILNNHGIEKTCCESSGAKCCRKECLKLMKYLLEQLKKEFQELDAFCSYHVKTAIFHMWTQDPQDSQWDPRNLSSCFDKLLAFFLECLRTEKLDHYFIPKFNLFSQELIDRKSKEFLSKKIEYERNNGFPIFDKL
# Description: The liquid was collected at the well bottom using centrifugation for 30 s at 180×g. […] Plates were centrifuged for 30 s at 180×g to collect all liquid at the bottom of the wells. […] The reaction was stopped by addition of 65 µl of 0.5% (v/v) formic acid per well. The plates were centrifuged for 30 s at 180×g and sealed with a Velocity11 PlateLoc thermal plate sealer.
# The solvent used for loading/washing process was an aqueous solution of 5 mM ammonium acetate, pH 10. […] Each sample of approximately 35 µl were aspirated from a 384-well plate and separated using a Graphitic carbon Type D cartridge. After each sample was loaded onto the cartridge it was washed for 4 s at 1.5 ml min^−1 using the aqueous solvent. ATP, GTP and cGAMP were eluted for 5 s using the organic solvent at a flow rate of 1.5 ml min^−1. The cartridge was then re-equilibrated with the aqueous solvent for 5 s at a flow rate of 1.5 ml min^−1. All samples were analyzed using a negative ionization mode in the mass spectrometer, with a gas temperature of 350 °C, nebulizer pressure of 35 psig, gas flow rate of 15 l min^−1. […] The Agilent RapidFire Integrator software was used to calculate the area under the curve (AUC) of the extracted ion counts for each analyte. Data points represent values of product formation. Catalytic rates expressed as percent product formation were calculated using the AUC of cGAMP and using the AUC’s of ATP and GTP to normalize for variations in the capacity of the solid phase extraction column during a screening run, as shown in the following formula: product formation (%) = [(AUCcGAMP × 100)/(AUCcGAMP + ½ AUCATP + ½ AUCGTP)].
# To determine the percent inhibition of mouse cGAS the data was normalized against the positive control (column 24) and negative control (column 23). […] The quality of the screen was assessed by Z′ factor[57] calculated as follows: Z′ = 1−[3∗(standard deviation positive control + standard deviation negative control)/(average positive control—average negative control)].
# [4] = test system: cGAS activity in dsDNA-stimulated RAW macrophages; test: Cellular luciferase assay, interferon-responsive reporter in dsDNA-stimulated RAW macrophages; type: cell-based; conditions: Mus musculus, Macrophage, dsDNA-activated RAW cells
# Description: as §1, §2
# [5] = test system: IFNB1-Luc activity; test: Interferon induction cellular assay (IFNB1-Luc) of the original manuscript version, reported in the point-by-point response; type: cell-based; conditions: original Fig. 5a, compared with vehicle
# [6] = test system: 45-bp dsDNA; test: DNA intercalation: acridine orange displacement from dsDNA by fluorescence polarization; type: binding; conditions: Supplementary Table 2; for % intercalation at 30 µM: acridine orange displacement compared to mitoxantrone; for Polarization: compound 30 µM
# Description: Ten microliters of HEN buffer (10 mM HEPES pH 7.5, 1 mM EDTA pH 7.5, 100 mM NaCl) were dispensed per well using a Thermo Multidrop Combi dispenser (Thermo Scientific). The liquid was collected at the well bottom using centrifugation for 30 s at 180×g. […] The final concentration of compounds in the assay was 30 µM. […] The liquid was collected at the well bottom using centrifugation for 30 s at 180×g. […] The liquid was collected at the well bottom using centrifugation for 30 s at 180 × g and the plates were incubated for 30 min. Mitoxantrone, a known DNA intercalator was used at 50 µM as a positive control, while DMSO alone was used as negative control. FP was measured using a Biotek Synergy Neo plate reader. […] All FP values are expressed in millipolarization (mP) units. The mP values were calculated using the equation mP = 1000 × [(I S−I SB)−(I P−I PB)]/[I S—I SB) + (I P−I PB)], where I S and […] to the parallel and perpendicular emission intensity, respectively, and I SB and I SP corresponds to parallel emission intensity perpendicular emission intensity of the buffer, respectively. The experimental G-factor, defined as G = I S/I P, was set to 1.0 in all experiments.
# [7] = biological target: cGAS (cyclic GMP-AMP synthase) (mouse, UniProt Q8C6L5 147-507); test: X-ray crystallography, 2.13 A; RU.365 in active site; Co-crystallization; crystallization buffer not in the material; protein stock 20 mM Tris-HCl pH 7.5, 300 mM NaCl, 1 mM DTT. ITC values are for inhibitors, and t; conditions: protein: recombinant; tags: His6-SUMO removed by ULP1; chain copies: 2; 16 bp plus 1-nt 5' overhang at each end
# Sequence of cGAS (cyclic GMP-AMP synthase) (Q8C6L5 147-507): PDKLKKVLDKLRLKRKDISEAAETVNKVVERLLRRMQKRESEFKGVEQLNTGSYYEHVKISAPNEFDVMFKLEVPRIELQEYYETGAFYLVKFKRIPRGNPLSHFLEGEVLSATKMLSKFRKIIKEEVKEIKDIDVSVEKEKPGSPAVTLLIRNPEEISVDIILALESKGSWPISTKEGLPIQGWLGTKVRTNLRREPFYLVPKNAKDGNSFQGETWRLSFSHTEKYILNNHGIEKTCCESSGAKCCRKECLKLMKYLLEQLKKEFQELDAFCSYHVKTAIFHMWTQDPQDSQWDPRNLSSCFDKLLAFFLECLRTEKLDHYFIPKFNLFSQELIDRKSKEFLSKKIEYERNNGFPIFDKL
# [8] = Fig. 1e, four prioritized screening hits, confirmed with independent lots of compound, read-out: IC50
# [9] = Supplementary Table 2, batch of compounds stored in the screening library, read-out: IC50
# [10] = Supplementary Table 2, compound 12.5 µM
Molecule,Polarization [6],"IC50 [3, 9]","inhibition at 12.5 µM [3, 10]",% intercalation at 30 µM [6],also measured
Cc1nn(-c2nc3ccccc3s2)c(O)c1C1OC(=O)c2ccccc21 (stereo not drawn) [RU281332],–,–,–,–,"suppression of activation by immunogenic stimuli other than dsDNA [1]: inhibited the activation of cells by most of the immunogenic ligands tested; LD50 over cellular IC50 [2]: 3.5 fold; LD50 ([2]; RAW macrophages, 72 h, percent viability, listed as RU.332): 48 µM; IC50 ([3]; Supplementary Table 3, analogs more potent than RU166365, read-out: IC50): 1790 nM; effect of structural modification on cGAS inhibitory potency ([3]; compared with RU.365): did not change the potency; IC50 [4]: 13600 nM"
O=C1N=C(N2CCCCC2)SC1=C1C(=O)Nc2ccccc21 [RU100840],269 mP,60 nM,88%,-8.9%,"IFNB1-Luc activity [5]: mild activation; IC50 [3, 8]: 30 nM"
COc1cccc2c1C(=O)c1c(O)c3c(c(O)c1C2=O)C[C@@](O)(C(C)=O)C[C@@H]3O[C@H]1C[C@H](N)[C@H](O)[C@H](C)O1 [RU83653],50 mP,1810 nM,91%,98.0%,–
O=C(O)C1CSC(c2cc(Br)c(O)c(Br)c2)N1 (stereo not drawn) [RU5512],264 mP,3000 nM,87%,-6.3%,–
COc1cccc2c1C(=O)c1c(O)c3c(c(O)c1C2=O)C[C@@](O)(C(C)=O)C[C@@H]3OC1CC(N)C(O)C(C)O1 (stereo partly drawn) [RU24146],55 mP,690 nM,93%,–,–
N#CC1=C(N)SC(N)=C(C#N)C1c1ccc([N+](=O)[O-])cc1 [RU107796],266 mP,8660 nM,62%,-7.6%,–
COc1cccc2c1C(=O)c1c(O)c3c(c(O)c1C2=O)C[C@@](O)(C(=O)CO)C[C@@H]3O[C@H]1C[C@H](N)[C@@H](O)[C@H](C)O1 [RU162145],53 mP,–,98%,96.5%,IC50 [3]: 580 nM
N#CCC(=O)Nc1sc2c(c1C(N)=O)CCCC2 [RU93687],263 mP,9110 nM,91%,-5.8%,–
CC(=O)[C@]1(O)Cc2c(O)c3c(c(O)c2[C@@H](O[C@H]2C[C@H](N)[C@H](O)[C@H](C)O2)C1)C(=O)c1ccccc1C3=O [RU84314],72 mP,1450 nM,90%,87.2%,–
CCN(CC)CCCC(C)Nc1c2ccc(Cl)cc2nc2ccc(OC)cc12 (stereo not drawn) [RU316],140 mP,6220 nM,–,–,"% inhibition at 12.5 µM [3, 10]: 68%"
crystal dsDNA (dsDNA) DNA 1: AAATTGCCGAAGACGAA DNA 2: TTTCGTCTTCGGCAATT,–,–,–,–,binding result [7]: binds

# Now from value to molecule, other results behind:
Polarization [6],"IC50 [3, 9]","inhibition at 12.5 µM [3, 10]",Molecule,% intercalation at 30 µM [6],also measured
274 mP,9690 nM,70%,O=C1CN2C(=C1c1ccccc1)NC(=O)c1sc3ccccc3c12 [RU207450],–,–
251 mP,250 nM,90%,Cc1ccc(C(=O)c2nc3c(n2O)CCCCC3)cc1 [RU171395],-0.3%,–
271 mP,6510 nM,63%,O=C1NC(=S)SC1=Cc1ccccc1F [RU116287],-9.8%,–
262 mP,3340 nM,97%,CCC1=NN2C(=N)/C(=C/c3cccs3)C(=O)N=C2S1 [RU169248],-5.7%,–
276 mP,170 nM,95%,O=C(COc1ccc(Cl)c2ccccc12)Nc1ncccc1O [RU191752],–,"IFNB1-Luc activity [5]: mild activation; IC50 [3, 8]: 70 nM"
